Like-named read-outs stand apart in the source and are kept apart here.
Experiments:
[1] = test system: HeLa (cervical cancer) cell line; assay: MTT cell viability assay, HeLa; assay type: cell-based, human; conditions: for IC50: Homo sapiens, HeLa
Protocol: (§1) Compounds 8–24 were evaluated in vitro for their cytotoxic effect against three human cancer cell lines, i.e., HeLa (cervical cancer), HCT-116 (colon cancer) and MCF-7 (breast cancer), and the non-tumor cell line HaCaT using the MTT assay after 72 h of incubation. The results of tests are presented in Table 1 as IC50, indicating the concentration required for 50% inhibition of cell viability. Compounds 8–10 and 14–18 are not presented in the Table 1 because of their low potency (IC50 > 100 µM).
The cytotoxic activity of 11–13 was determined in a time-dependent manner with the MTT assay (Figure 3).
HeLa cells were treated with 11, 12 and 13 in the concentration range of 0–20 µM. […] After 48 h, the IC50 values for compounds 11, 12 and 13 were 6, 7 and 6 µM, respectively.
(§2) All chemicals, if not stated otherwise, were obtained from Sigma-Aldrich (St. Louis, MO, USA). The MCF-7, HeLa and HaCaT cell lines were purchased from Cell Lines Services (Eppelheim, Germany), and the HCT-116 cell line was purchased from ATCC (ATCC-No: CCL-247). The cells were cultured in Dulbecco’s modified Eagle’s medium (DMEM) supplemented with 10% fetal bovine serum, 2 mM glutamine, 100 units/mL of penicillin and 100 μg/mL of streptomycin. The cultures were maintained in a humidified atmosphere with 5% CO2 at 37 °C, in an incubator (Heraeus, HeraCell).
(§3) Cytotoxicity assay: Cell viability was determined using the MTT (3-(4,5-dimethylthiazol-2-yl)-2,5diphenyltetrazoliumbromide) assay. The cells were seeded in 96-well plates at a density of 5 × 10^3 cells/well and treated for 24, 48 and 72 h with the examined compounds in the concentration range 1–100 μM. Following treatment, MTT (0.5 mg/mL) was added to the medium, and the cells were further incubated for 2 h at 37 °C. the cells were lysed with DMSO, and the absorbance of the formazan solution was measured at 550 nm with a plate reader (Victor, 1420 multilabel counter). The experiment was performed in triplicate. The values are expressed as the mean ± SD of at least three independent experiments.

[2] = test system: HaCaT (immortalized human keratinocytes); assay: MTT cell viability assay, non-tumor HaCaT; assay type: cell-based; conditions: Homo sapiens, HaCaT, 72 h of incubation, non-tumor cell line
Protocol: as §1
We also performed an assay on the non-tumor cell line HaCaT (immortalized human keratinocytes) to assess if the effect of 11–13 was selective toward HeLa cells or resulted from a more general toxic activity.
as §2, §3

[3] = test system: HeLa cells; assay: Apoptosis detection by Annexin V-PE and 7-AAD staining, flow cytometry; assay type: cell-based, human; conditions: 5 and 10 µM, 48 h
Protocol: In order to determine whether the anti-proliferative effects of 11, 12 and 13 were associated with their ability to induce apoptosis in HeLa cells, the induction of phosphatidylserine externalization by compounds 11, 12 and 13 was examined by flow cytometric analysis. The cells were treated with 2.5, 5 and 10 µM concentrations of 11, 12 and 13 for 24 and 48 h and stained with Annexin V-PE and 7-AAD. […] After 24 h of treatment, a significant increase in the early apoptotic population of cells was visible starting from the concentration of 5 µM.
Detection of apoptosis by Annexin V-PE and 7-AAD staining: Apoptosis induction was detected with an Annexin V-PE Apoptosis Detection Kit I (BD Biosciences, Belgium) according to the manufacturer’s instructions. The cells were treated with 11–13 (2.5, 5 and 10 µM) for 24 and 48 h. Following treatment, the cells were collected and stained with Annexin V-phycoerythrin (PE) and 7-amino-actinomycin (7-AAD) in Annexin-binding buffer for 15 min at RT in the dark. The acquisition was performed on a FACSCalibur cytometer (BD), and the data were analyzed with Flowing software (version 2.5).

[4] = test system: caspase activity in HeLa cells; assay: Caspase activity determination (FLICA, FAM-VAD-FMK), flow cytometry; assay type: cell-based, human; conditions: HeLa, 5, 7 and 10 µM, 24 h
Protocol: Apoptosis induction was further determined by examining the effects of 11, 12 and 13 on caspase activation in HeLa cells. Caspase activity induction was determined with the use of the fluorescently labeled caspase inhibitor-FAM-VAD-FMK (a carboxyfluorescein derivative of valylalanylaspartic acid fluoromethyl ketone). The caspase inhibitor binds to active caspases inhibiting their enzymatic activity, thus allowing caspase activity quantification through determining the fluorescent intensity of the bound inhibitor. […] Increased caspase activation was shown by the increased fluorescence of the caspase inhibitor in the cell population, as indicated in Figure 6.
Caspase Activity Determination: Caspase activity was determined with the FLICA Apoptosis Detection Kit (Immunochemistry Technologies) according to the manufacturer’s instructions. The cells were treated with comp. 11, 12 and 13 (5, 7 and 10 µM) for 24 h, after which the cells were collected and suspended in a buffer containing the caspase inhibitor, i.e., a carboxyfluorescein-labeled fluoromethyl ketone peptide. The cells were subsequently incubated for 1 h at 37 °C under 5% CO2 and, next, they were washed with a washing buffer. The fluorescence intensity of fluorescein was determined by flow cytometry (BD FACSCalibur), and caspase activity was determined as the amount of fluorescence emitted from the caspase inhibitors bound to the caspases. The data were analyzed with Flowing software (version 2.5).

[5] = test system: HeLa cells; assay: Cell cycle distribution analysis (PI staining, flow cytometry); assay type: cell-based, human; conditions: 48 h; for percentage of cells in the sub-G1 phase of the cell cycle: HeLa, 5, 7 and 10 µM
Protocol: The effects of compounds 11, 12 and 13 on the cell cycle phase distribution of HeLa cells were assessed by flow cytometry. The cells were treated with 5, 7 and 10 µM concentrations of […] and 13 for 48 h and stained with PI.
Cell Cycle Distribution Analysis: The effects of 11, 12 and 13 on the cell cycle distribution in HeLa cells were determined by flow cytometry analysis. The cells were treated with 11, 12 and 13 (5, 7 and 10 µM) for 48 h, after which they were fixed in cold 70% ethanol for 24 h. The fixed cells were treated with 100 µg/mL of RNAse (Invitrogen, Germany) and stained with 10 µg/mL of PI (Invitrogen, Germany) for 30 min at RT. The acquisition was performed on a FACSCalibur cytometer (BD), and the data were analyzed with Flowing software (version 2.5).

[6] = MTT assay, 72 h of incubation, read-out: IC50 HeLa
[7] = MTT, 24 h of treatment, 0–20 µM

Structure (SMILES)	IC50 [1, 6]	IC50 HeLa after 24 h [1, 7]	IC50 [2]	cells in the late stage of apoptosis [3]	caspase activity induction [4]	percentage of cells in the sub-G1 phase of the cell cycle [5]	IC50 ([1]; MTT, 24 h of treatment, 0–20 µM, read-out: IC50 HeLa after 24 h)	cell cycle arrest ([5]; HeLa, 7 and 10 μM)
Cc1cc(S(=O)(=O)NC(=N)n2ccn(C)c2=S)c(SCc2ccc(Cl)cc2)cc1Cl [Compound 11, 4-Chloro-N-[imino(3-methyl-2-thioxo-2,3-dihydro-1H-imidazol-1-yl)methyl]-5-methyl-2-(4-chlorobenzylthio)benzenesulfonamide]	6 ± 0.1 µM	not reached	18 ± 0.5 µM	significant increase in cells in the late stage of apoptosis	induced caspase activity in HeLa cells in a dose-dependent manner	increase in the percentage of cells in the sub-G1 phase		
Cc1cc(S(=O)(=O)NC(=N)n2ccn(C)c2=S)c(SCc2cccc3ccccc23)cc1Cl [Compound 13, 4-Chloro-N-[imino(3-methyl-2-thioxo-2,3-dihydro-1H-imidazol-1-yl)methyl]-5-methyl-2-(naphthalen-1-ylmethylthio)benzenesulfonamide]	6 ± 0.1 µM		18 ± 0.5 µM	significant increase in cells in the late stage of apoptosis	induced caspase activity in HeLa cells in a dose-dependent manner	increase in the percentage of cells in the sub-G1 phase	18 µM	
Cc1cc(S(=O)(=O)NC(=N)n2ccn(C)c2=S)c(SCc2cc3c(cc2Cl)OCO3)cc1Cl [Compound 12]	7 ± 0.3 µM	not reached	20 ± 1 µM	significant increase in cells in the late stage of apoptosis	induced caspase activity in HeLa cells in a dose-dependent manner	increase in the percentage of cells in the sub-G1 phase		induced G2/M arrest
